Assay results reported in ChEMBL document CHEMBL1146225, “[1,2,3]Triazolo[4,5-h]quinolones. A new class of potent antitubercular agents against multidrug resistant Mycobacterium tuberculosis strains” (Bioorg Med Chem Lett, 2007).
≈ marks a conversion by molar mass, not a printed value.

Legend:
[1] = test system: Mycobacterium tuberculosis; test: Antitubercular activity against Mycobacterium tuberculosis SS9; assay type: functional
[2] = test system: Mycobacterium tuberculosis; test: Antitubercular activity against Mycobacterium tuberculosis SS11; assay type: functional
[3] = test system: Mycobacterium tuberculosis; test: Antitubercular activity against Mycobacterium tuberculosis SS10; assay type: functional
[4] = test system: Mycobacterium tuberculosis; test: Antitubercular activity against Mycobacterium tuberculosis SS4; assay type: functional
[5] = test system: Mycobacterium tuberculosis; test: Antitubercular activity against Mycobacterium tuberculosis SS1; assay type: functional
[6] = test system: Mycobacterium tuberculosis; test: Antitubercular activity against Mycobacterium tuberculosis SS6; assay type: functional
[7] = test system: Mycobacterium tuberculosis; test: Antitubercular activity against Mycobacterium tuberculosis SS8; assay type: functional
[8] = test system: Mycobacterium tuberculosis; test: Antitubercular activity against Mycobacterium tuberculosis SS2; assay type: functional
[9] = test system: Mycobacterium tuberculosis; test: Antitubercular activity against Mycobacterium tuberculosis H37Rv; assay type: functional
[10] = test system: Mycobacterium tuberculosis; test: Antitubercular activity against Mycobacterium tuberculosis SS5; assay type: functional
[11] = test system: Mycobacterium tuberculosis; test: Antitubercular activity against Mycobacterium tuberculosis SS7; assay type: functional
[12] = test system: Mycobacterium tuberculosis; test: Antitubercular activity against Mycobacterium tuberculosis SS3; assay type: functional
[13] = test system: Mycobacterium tuberculosis; test: Effect on mycobacterial growth of Mycobacterium tuberculosis H37Rv infected in human J774A1 cells at 0.25 ug/mL after 7 days; assay type: functional, J774.A1
[14] = test system: Mycobacterium tuberculosis; test: Effect on mycobacterial growth of Mycobacterium tuberculosis H37Rv infected in human J774A1 cells at 0.5 ug/mL after 7 days; assay type: functional, J774.A1
[15] = Cytotoxicity against human Hep2 cells; assay type: cell-based, HEp-2
[16] = Cytotoxicity against human J774A1; assay type: cell-based, J774.A1; details: J774A1 cells

Row | Structure (SMILES) | MIC90 [1] | MIC90 [2] | MIC90 [3] | MIC90 [4] | MIC90 [5] | MIC90 [6] | MIC90 [7] | MIC90 [8] | MIC90 [9] | MIC90 [10] | MIC90 [11] | MIC90 [12] | CFU [13] | CFU [14] | CC50 [15] | CC50 [16]
1 | C=CCn1cc(C(=O)OCC)c(=O)c2ccc3c(nnn3C)c21 | > 32 µg/mL | > 32 µg/mL | > 32 µg/mL | > 32 µg/mL | > 32 µg/mL | > 32 µg/mL | > 32 µg/mL | > 32 µg/mL | > 32 µg/mL | > 32 µg/mL | > 32 µg/mL | > 32 µg/mL | – | – | – | –
2 | CCn1cc(C(=O)O)c(=O)c2ccc3nn(C)nc3c21 | – | – | – | – | – | – | – | – | 5 µg/mL (≈ 18.4 µM) | – | – | – | – | – | – | –
3 | CCCCn1cc(C(=O)OCC)c(=O)c2ccc3c(nnn3C)c21 | 0.5 µg/mL (≈ 1.52 µM) | 0.5 µg/mL (≈ 1.52 µM) | 0.5 µg/mL (≈ 1.52 µM) | 0.5 µg/mL (≈ 1.52 µM) | 0.5 µg/mL (≈ 1.52 µM) | 0.5 µg/mL (≈ 1.52 µM) | 0.5 µg/mL (≈ 1.52 µM) | 0.5 µg/mL (≈ 1.52 µM) | 0.5 µg/mL (≈ 1.52 µM) | 0.5 µg/mL (≈ 1.52 µM) | 0.5 µg/mL (≈ 1.52 µM) | 0.5 µg/mL (≈ 1.52 µM) | 8000 µL⁻¹ | 5000 µL⁻¹ | > 50 µg/mL | > 50 µg/mL
4 | Cn1nnc2c3c(ccc21)c(=O)c(C(=O)O)cn3Cc1ccc(Br)cc1 | > 32 µg/mL | > 32 µg/mL | > 32 µg/mL | > 32 µg/mL | > 32 µg/mL | > 32 µg/mL | > 32 µg/mL | > 32 µg/mL | > 32 µg/mL | > 32 µg/mL | > 32 µg/mL | > 32 µg/mL | – | – | – | –
5 | CCOC(=O)c1cn(C)c2c(ccc3c2nnn3C)c1=O | 0.5 µg/mL (≈ 1.75 µM) | 0.5 µg/mL (≈ 1.75 µM) | 0.5 µg/mL (≈ 1.75 µM) | 2 µg/mL (≈ 6.99 µM) | 0.5 µg/mL (≈ 1.75 µM) | 0.5 µg/mL (≈ 1.75 µM) | 0.5 µg/mL (≈ 1.75 µM) | 0.5 µg/mL (≈ 1.75 µM) | 0.5 µg/mL (≈ 1.75 µM) | 0.5 µg/mL (≈ 1.75 µM) | 0.5 µg/mL (≈ 1.75 µM) | 0.5 µg/mL (≈ 1.75 µM) | – | – | – | –
6 | CCn1cc(C(=O)O)c(=O)c2ccc3c(nnn3C)c21 | 1.6 µg/mL (≈ 5.88 µM) | 1.6 µg/mL (≈ 5.88 µM) | 1.6 µg/mL (≈ 5.88 µM) | 3.2 µg/mL (≈ 11.8 µM) | 1.6 µg/mL (≈ 5.88 µM) | 1.6 µg/mL (≈ 5.88 µM) | 1.6 µg/mL (≈ 5.88 µM) | 0.8 µg/mL (≈ 2.94 µM) | 1.6 µg/mL (≈ 5.88 µM) | 1.6 µg/mL (≈ 5.88 µM) | 3.2 µg/mL (≈ 11.8 µM) | 3.2 µg/mL (≈ 11.8 µM) | – | – | – | –
7 | CCOC(=O)c1cn(Cc2ccccc2)c2c(ccc3c2nnn3C)c1=O | > 32 µg/mL | > 32 µg/mL | > 32 µg/mL | > 32 µg/mL | > 32 µg/mL | > 32 µg/mL | > 32 µg/mL | > 32 µg/mL | > 32 µg/mL | > 32 µg/mL | > 32 µg/mL | > 32 µg/mL | – | – | – | –
8 | Cn1nnc2c3c(ccc21)c(=O)c(C(=O)O)cn3CCc1ccccc1 | 0.8 µg/mL (≈ 2.3 µM) | 0.8 µg/mL (≈ 2.3 µM) | 3.2 µg/mL (≈ 9.19 µM) | 3.2 µg/mL (≈ 9.19 µM) | 0.8 µg/mL (≈ 2.3 µM) | 3.2 µg/mL (≈ 9.19 µM) | 0.8 µg/mL (≈ 2.3 µM) | 0.8 µg/mL (≈ 2.3 µM) | 0.8 µg/mL (≈ 2.3 µM) | 3.2 µg/mL (≈ 9.19 µM) | 3.2 µg/mL (≈ 9.19 µM) | 3.2 µg/mL (≈ 9.19 µM) | – | – | – | –
9 | CCn1cc(C(=O)O)c(=O)c2ccc3c(nnn3CC)c21 | – | – | – | – | – | – | – | – | 1.6 µg/mL (≈ 5.59 µM) | – | – | – | – | – | – | –
10 | CCCCn1cc(C(=O)O)c(=O)c2ccc3c(nnn3C)c21 | > 32 µg/mL | > 32 µg/mL | > 32 µg/mL | > 32 µg/mL | > 32 µg/mL | > 32 µg/mL | > 32 µg/mL | > 32 µg/mL | > 32 µg/mL | > 32 µg/mL | > 32 µg/mL | > 32 µg/mL | – | – | – | –
11 | CCOC(=O)c1cn(CCc2ccccc2)c2c(ccc3c2nnn3C)c1=O | > 32 µg/mL | > 32 µg/mL | > 32 µg/mL | > 32 µg/mL | > 32 µg/mL | > 32 µg/mL | > 32 µg/mL | > 32 µg/mL | > 32 µg/mL | > 32 µg/mL | > 32 µg/mL | > 32 µg/mL | – | – | – | –
12 | CCOC(=O)c1cn(Cc2ccc(C)cc2)c2c(ccc3c2nnn3C)c1=O | > 32 µg/mL | > 32 µg/mL | > 32 µg/mL | > 32 µg/mL | > 32 µg/mL | > 32 µg/mL | > 32 µg/mL | > 32 µg/mL | > 32 µg/mL | > 32 µg/mL | > 32 µg/mL | > 32 µg/mL | – | – | – | –
13 | CO[C@H]1/C=C/O[C@@]2(C)Oc3c(C)c(O)c4c(O)c(c(/C=N/N5CCN(C)CC5)c(O)c4c3C2=O)NC(=O)/C(C)=C\C=C\[C@H](C)[C@H](O)[C@@H](C)[C@@H](O)[C@@H](C)[C@H](OC(C)=O)[C@@H]1C [RIFAMPIN] | 0.5 µg/mL (≈ 0.608 µM) | 0.5 µg/mL (≈ 0.608 µM) | 0.8 µg/mL (≈ 0.972 µM) | 0.7 µg/mL (≈ 0.851 µM) | > 4 µg/mL | > 4 µg/mL | 0.5 µg/mL (≈ 0.608 µM) | > 4 µg/mL | 0.7 µg/mL (≈ 0.851 µM) | 0.5 µg/mL (≈ 0.608 µM) | 0.8 µg/mL (≈ 0.972 µM) | 0.5 µg/mL (≈ 0.608 µM) | – | – | – | –
14 | CCCn1cc(C(=O)OCC)c(=O)c2ccc3c(nnn3C)c21 | > 32 µg/mL | > 32 µg/mL | > 32 µg/mL | > 32 µg/mL | > 32 µg/mL | > 32 µg/mL | > 32 µg/mL | > 32 µg/mL | > 32 µg/mL | > 32 µg/mL | > 32 µg/mL | > 32 µg/mL | – | – | – | –
15 | Cn1nnc2c3[nH]cc(C(=O)O)c(=O)c3ccc21 | – | – | – | – | – | – | – | – | 4.8 µg/mL (≈ 19.7 µM) | – | – | – | – | – | – | –
16 | Cc1ccc(Cn2cc(C(=O)O)c(=O)c3ccc4c(nnn4C)c32)cc1 | > 32 µg/mL | > 32 µg/mL | > 32 µg/mL | > 32 µg/mL | > 32 µg/mL | > 32 µg/mL | > 32 µg/mL | > 32 µg/mL | > 32 µg/mL | > 32 µg/mL | > 32 µg/mL | > 32 µg/mL | – | – | – | –
17 | C=CCn1cc(C(=O)O)c(=O)c2ccc3c(nnn3C)c21 | > 32 µg/mL | > 32 µg/mL | > 32 µg/mL | > 32 µg/mL | > 32 µg/mL | > 32 µg/mL | > 32 µg/mL | > 32 µg/mL | > 32 µg/mL | > 32 µg/mL | > 32 µg/mL | > 32 µg/mL | – | – | – | –
18 | Cn1cc(C(=O)O)c(=O)c2ccc3c(nnn3C)c21 | 0.5 µg/mL (≈ 1.94 µM) | 0.5 µg/mL (≈ 1.94 µM) | 0.5 µg/mL (≈ 1.94 µM) | 2 µg/mL (≈ 7.74 µM) | 0.5 µg/mL (≈ 1.94 µM) | 0.5 µg/mL (≈ 1.94 µM) | 0.5 µg/mL (≈ 1.94 µM) | 0.5 µg/mL (≈ 1.94 µM) | 0.5 µg/mL (≈ 1.94 µM) | 0.5 µg/mL (≈ 1.94 µM) | 0.5 µg/mL (≈ 1.94 µM) | 0.5 µg/mL (≈ 1.94 µM) | – | – | – | –
19 | CCCn1cc(C(=O)O)c(=O)c2ccc3c(nnn3C)c21 | 1.6 µg/mL (≈ 5.59 µM) | 1.6 µg/mL (≈ 5.59 µM) | 1.6 µg/mL (≈ 5.59 µM) | 3.2 µg/mL (≈ 11.2 µM) | 1.6 µg/mL (≈ 5.59 µM) | 1.6 µg/mL (≈ 5.59 µM) | 1.6 µg/mL (≈ 5.59 µM) | 1.6 µg/mL (≈ 5.59 µM) | 1.6 µg/mL (≈ 5.59 µM) | 3.2 µg/mL (≈ 11.2 µM) | 3.2 µg/mL (≈ 11.2 µM) | 1.6 µg/mL (≈ 5.59 µM) | – | – | – | –
20 | Cn1nnc2c3c(ccc21)c(=O)c(C(=O)O)cn3Cc1ccccc1 | > 32 µg/mL | > 32 µg/mL | > 32 µg/mL | > 32 µg/mL | > 32 µg/mL | > 32 µg/mL | > 32 µg/mL | > 32 µg/mL | > 32 µg/mL | > 32 µg/mL | > 32 µg/mL | > 32 µg/mL | – | – | – | –
21 | CCOC(=O)c1cn(Cc2ccc(Br)cc2)c2c(ccc3c2nnn3C)c1=O | > 32 µg/mL | > 32 µg/mL | > 32 µg/mL | > 32 µg/mL | > 32 µg/mL | > 32 µg/mL | > 32 µg/mL | > 32 µg/mL | > 32 µg/mL | > 32 µg/mL | > 32 µg/mL | > 32 µg/mL | – | – | – | –
